Data as given in paper PMC3714282, “Pharmacometabolomics of Response to Sertraline and to Placebo in Major Depressive Disorder – Possible Role for Methoxyindole Pathway” (PLoS ONE, 2013).

System: serum metabolites (tryptophan, tyrosine, purine pathways, antioxidants)
Assay: LCECA metabolomic profiling of serum: change from baseline at week 1 and week 4 (all, responders, non-responders)
Assay type: in vivo, human
From the text: Study participants were outpatients, 18–65 years of age, from various clinical sites across the United States. […] A complete description of the inclusion and exclusion used in this study can be found in Table S1. The study protocol was developed in accordance with the principles of the Declaration of Helsinki. All patients provided written informed consent. The study was sponsored and monitored by Pfizer, Inc. Each site's institutional review board approved and oversaw the study. The primary outcome measure was the HAMD17, used to assess depressive symptom severity. Measures were gathered at baseline, and weeks 1 and 4 of treatment at the patient's visits. Serum samples were collected using standard protocol at baseline, week 1 and week 4 of treatment at the clinic visits. Whole blood was collected in serum collection tubes and inverted 5–8 times. Serum samples were allowed to clot at room temperature for 60 minutes and then centrifuged at 1,300×g for 15 minutes. Following centrifugation supernatant was frozen at −80°C until analysis.
Samples were analyzed using a liquid chromatography electrochemical array (LCECA) platform that has been extensively validated and used in our prior studies in neurodegenerative and psychiatric disorders [30]–[34]. The method includes multiple compounds from the tyrosine, tryptophan, sulfur amino acids and purine pathways, and markers of oxidative stress and protection (for the list of metabolites and abbreviations see Table 1). Levels of 5-Methoxytryptamine (5-MTPM) were measured using a gas chromatography time-of-flight-mass spectrometry (GCTOF-MS) platform. Samples were prepared for analysis as previously described. During the sample preparation, pools were created from equal volumes of subaliquots of all samples. Concentrations of metabolites in the individual samples were expressed as a percentage of the concentration of those metabolites in the averaged pool.
Data preprocessing: We first removed the metabolites that have more than 40% missing values. […] Principal components analysis (PCA; SIMCA-P+12.0) was used to identify outliers. The analysis was performed for each time point. […] Subjects with ≥3 standard deviations away from the center of data cloud within two principal components (PC's) scores scatter plot were considered outliers and were removed from further analysis.
These analyses were conducted separately for the sertraline and placebo groups. Between groups t-tests were used to compare baseline to one week and baseline to four week change scores between the sertraline and placebo groups.
Signatures of response to sertraline and placebo were identified by using paired t-tests to compare week 4 metabolite levels to baseline metabolite levels in the responders and non-responders to therapy. […] These analyses were also performed to evaluate changes in ratios of individual metabolites within (e.g., 5-HT/5-HTP) and between branches of tryptophan pathway (e.g., KYN/MEL).

[1] = after four week of treatment, non-responders
[2] = after four week of treatment, responders
[3] = after one week of treatment, non-responders
[4] = serum, four weeks, non-responders to sertraline
[5] = serum, four weeks, poor response to sertraline
[6] = serum, four weeks, responders to sertraline
[7] = serum, log-transformed concentration, after four weeks, sertraline group

CN[C@H]1CC[C@@H](c2ccc(Cl)c(Cl)c2)c2ccccc21 [Sertraline, sertraline]
Change of 3-OHKY (average change of log-transformed concentration) [1]: 0.013 | Change of 3-OMD (average change of log-transformed concentration) [1]: -0.048 | Change of 4-HBAC (average change of log-transformed concentration) [1]: 0.19 | Change of 4-HPAC (average change of log-transformed concentration) [1]: 0.14 | Change of 4-HPLA (average change of log-transformed concentration) [1]: 0.11 | Change of 5-HIAA (average change of log-transformed concentration) [1]: -0.077 | Change of 5-HT (average change of log-transformed concentration) [1]: -1.6 | Change of 5-HTP (average change of log-transformed concentration) [1]: 0.24 | Change of 5-MTPOL (average change of log-transformed concentration) [1]: 0.093 | Change of 7-MXAN (average change of log-transformed concentration) [1]: 0.56 | Change of ATOCO (average change of log-transformed concentration) [1]: 0.47 | Change of CYS (average change of log-transformed concentration) [1]: -0.014 | Change of DIOHMAL (average change of log-transformed concentration) [1]: 0.25 | Change of DOPAC (average change of log-transformed concentration) [1]: -0.099 | Change of DTOCO (average change of log-transformed concentration) [1]: 0.52 | Change of GR (average change of log-transformed concentration) [1]: 0.31 | Change of GRMP (average change of log-transformed concentration) [1]: -0.16 | Change of GSH (average change of log-transformed concentration) [1]: -0.084 | Change of HGA (average change of log-transformed concentration) [1]: 0.63 | Change of HVA (average change of log-transformed concentration) [1]: 0.085 | Change of HX (average change of log-transformed concentration) [1]: 0.014 | Change of KYN (average change of log-transformed concentration) [1]: 0.066 | Change of LD (average change of log-transformed concentration) [1]: 0.35 | Change of MEL (average change of log-transformed concentration) [1]: 0.26 | Change of METH (average change of log-transformed concentration) [1]: 0.3 | Change of MHPG (average change of log-transformed concentration) [1]: -0.28 | Change of NA-5-HT (average change of log-transformed concentration) [1]: 0.0044 | Change of TRP (average change of log-transformed concentration) [1]: 0.11 | Change of TRPOL (average change of log-transformed concentration) [1]: 0.053 | Change of TYR (average change of log-transformed concentration) [1]: -0.11 | Change of UA (average change of log-transformed concentration) [1]: -0.095 | Change of VMA (average change of log-transformed concentration) [1]: 0.058 | Change of XAN (average change of log-transformed concentration) [1]: -0.19 | Change of XANTH (average change of log-transformed concentration) [1]: 0.098 | Change of 3-OHKY (average change of log-transformed concentration) [2]: 0.071 | Change of 3-OMD (average change of log-transformed concentration) [2]: 0.19 | Change of 4-HBAC (average change of log-transformed concentration) [2]: 0.07 | Change of 4-HPAC (average change of log-transformed concentration) [2]: 0.37 | Change of 4-HPLA (average change of log-transformed concentration) [2]: 0.14 | Change of 5-HIAA (average change of log-transformed concentration) [2]: -0.046 | Change of 5-HT (average change of log-transformed concentration) [2]: -2.2 | Change of 5-HTP (average change of log-transformed concentration) [2]: 0.014 | Change of 5-MTPOL (average change of log-transformed concentration) [2]: 0.17 | Change of 7-MXAN (average change of log-transformed concentration) [2]: -0.32 | Change of ATOCO (average change of log-transformed concentration) [2]: 0.76 | Change of CYS (average change of log-transformed concentration) [2]: 0.0094 | Change of DIOHMAL (average change of log-transformed concentration) [2]: 0.47 | Change of DOPAC (average change of log-transformed concentration) [2]: 0.058 | Change of DTOCO (average change of log-transformed concentration) [2]: 0.88 | Change of GR (average change of log-transformed concentration) [2]: -0.26 | Change of GRMP (average change of log-transformed concentration) [2]: 0.23 | Change of GSH (average change of log-transformed concentration) [2]: 0.096 | Change of HGA (average change of log-transformed concentration) [2]: 0.21 | Change of HVA (average change of log-transformed concentration) [2]: 0.12 | Change of HX (average change of log-transformed concentration) [2]: -0.022 | Change of KYN (average change of log-transformed concentration) [2]: 0.027 | Change of LD (average change of log-transformed concentration) [2]: -0.069 | Change of MEL (average change of log-transformed concentration) [2]: 0.68 | Change of METH (average change of log-transformed concentration) [2]: 0.12 | Change of MHPG (average change of log-transformed concentration) [2]: -0.16 | Change of NA-5-HT (average change of log-transformed concentration) [2]: 0.071 | Change of TRP (average change of log-transformed concentration) [2]: 0.041 | Change of TRPOL (average change of log-transformed concentration) [2]: 0.068 | Change of TYR (average change of log-transformed concentration) [2]: 0.14 | Change of UA (average change of log-transformed concentration) [2]: -0.027 | Change of VMA (average change of log-transformed concentration) [2]: -0.077 | Change of XAN (average change of log-transformed concentration) [2]: -0.14 | Change of XANTH (average change of log-transformed concentration) [2]: 0.0046 | Change of 3-OHKY (average change of log-transformed concentration) [3]: -0.11 | Change of 3-OMD (average change of log-transformed concentration) [3]: -0.082 | Change of 4-HBAC (average change of log-transformed concentration) [3]: -0.44 | Change of 4-HPAC (average change of log-transformed concentration) [3]: 0.18 | Change of 4-HPLA (average change of log-transformed concentration) [3]: 0.055 | Change of 5-HIAA (average change of log-transformed concentration) [3]: -0.19 | Change of 5-HT (average change of log-transformed concentration) [3]: -0.72 | Change of 5-HTP (average change of log-transformed concentration) [3]: -0.14 | Change of 5-MTPOL (average change of log-transformed concentration) [3]: -0.027 | Change of 7-MXAN (average change of log-transformed concentration) [3]: 0.16 | Change of ATOCO (average change of log-transformed concentration) [3]: 0.084 | Change of CYS (average change of log-transformed concentration) [3]: -0.056 | Change of DIOHMAL (average change of log-transformed concentration) [3]: 0.17 | Change of DOPAC (average change of log-transformed concentration) [3]: -0.18 | Change of DTOCO (average change of log-transformed concentration) [3]: 0.024 | Change of GR (average change of log-transformed concentration) [3]: -0.47 | Change of GRMP (average change of log-transformed concentration) [3]: -0.012 | Change of GSH (average change of log-transformed concentration) [3]: -0.0084 | Change of HGA (average change of log-transformed concentration) [3]: 0.34 | Change of HVA (average change of log-transformed concentration) [3]: 0.0025 | Change of HX (average change of log-transformed concentration) [3]: -0.066 | Change of KYN (average change of log-transformed concentration) [3]: -0.11 | Change of LD (average change of log-transformed concentration) [3]: 0.053 | Change of MEL (average change of log-transformed concentration) [3]: 0.3 | Change of METH (average change of log-transformed concentration) [3]: 0.16 | Change of MHPG (average change of log-transformed concentration) [3]: -0.072 | Change of NA-5-HT (average change of log-transformed concentration) [3]: 0.027 | Change of TRP (average change of log-transformed concentration) [3]: -0.022 | Change of TRPOL (average change of log-transformed concentration) [3]: 0.0024 | Change of TYR (average change of log-transformed concentration) [3]: -0.073 | Change of UA (average change of log-transformed concentration) [3]: -0.095 | Change of VMA (average change of log-transformed concentration) [3]: 0.12 | Change of XAN (average change of log-transformed concentration) [3]: -0.18 | Change of XANTH (average change of log-transformed concentration) [3]: 0.11 | Change in 5-HT levels [4]: significantly reduced | Change in 5-MTPOL levels [4]: not significantly changed | Change in DIOHMAL levels [4]: significantly increased | Change in MEL levels [4]: not significantly changed | Change in HGA levels [5]: Significant increases | Change in LD levels [5]: Significant increases | Change in 4-HPAC levels [6]: significantly increased | Change in 5-HT levels [6]: significant decrease | Change in 5-MTPOL levels [6]: significant increases | Change in DIOHMAL levels [6]: significantly increased | Change in MEL levels [6]: significant increases | Change 3-OHKY [7]: 0.044 | Change 3-OMD [7]: 0.079 | Change 4-HBAC [7]: 0.12 | Change 4-HPAC [7]: 0.26 | Change 4-HPLA [7]: 0.13 | Change 5-HIAA [7]: −0.06
